Data on 2 compounds can be found in PMC8504577, “Evaluation of a Clinically Relevant Drug–Drug Interaction Between Rosuvastatin and Clopidogrel and the Risk of Hepatotoxicity” (Frontiers in Pharmacology, 2021).

In one series the target is T1, BCRP (Homo sapiens, UniProt Q9UNQ0).
T1 sequence (Q9UNQ0 1-655): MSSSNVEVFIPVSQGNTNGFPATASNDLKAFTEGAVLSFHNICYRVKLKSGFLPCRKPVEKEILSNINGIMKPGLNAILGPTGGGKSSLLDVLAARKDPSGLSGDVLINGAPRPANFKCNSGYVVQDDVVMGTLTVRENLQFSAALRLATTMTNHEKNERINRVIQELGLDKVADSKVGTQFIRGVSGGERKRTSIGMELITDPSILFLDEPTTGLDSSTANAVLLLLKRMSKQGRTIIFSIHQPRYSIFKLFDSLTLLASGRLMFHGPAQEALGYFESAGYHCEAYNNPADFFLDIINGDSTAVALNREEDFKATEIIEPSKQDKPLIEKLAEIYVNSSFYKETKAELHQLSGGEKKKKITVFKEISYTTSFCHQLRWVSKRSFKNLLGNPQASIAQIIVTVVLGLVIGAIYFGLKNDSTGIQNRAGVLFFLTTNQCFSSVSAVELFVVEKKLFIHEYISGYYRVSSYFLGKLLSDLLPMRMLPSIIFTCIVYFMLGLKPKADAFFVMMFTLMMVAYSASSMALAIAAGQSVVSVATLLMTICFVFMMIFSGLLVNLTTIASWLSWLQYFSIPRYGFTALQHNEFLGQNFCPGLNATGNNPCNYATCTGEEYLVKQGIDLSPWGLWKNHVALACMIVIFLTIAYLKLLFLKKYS
The conditions noted are these: CP at 75 and 300 mg.

The target in a further series is T2, MRP2 (Homo sapiens, UniProt Q92887).
T2 construct: purchased GenoMembrane Co., Ltd. (Yokohama, Japan) GM0001
As to the kind of experiment: RSV uptake into MRP2-expressing membrane vesicles. It counts as biochemical. The conditions noted are these: ATP vs AMP; data not shown. On the procedure: The vesicular transport activity was determined by the 96-well rapid filtration method in BCRP- and MRP2-expressing membrane vesicles. […] Meanwhile, 5 μL RSV (final concentration, 1 μM) and 20 μL reagent C2 were pre-incubated at 37°C for 5 min. Then, the transport was initiated by mixing them in a 50 μL reaction system and incubated for the designated time at 37°C. The transport was terminated by adding 200 μL of cold buffer B2 at 4°C. Then, the mixture was filtered using a 96-well filter plate. After washing the vesicles five times with 200 μL of cold buffer B2 at 4°C, the vesicles were lysed with 50 μL of 80% […] twice and then centrifuged at 2000 rpm/min for 2 min. Lysates were collected and then centrifuged at 12,000 rpm/min for 5 min. The supernatants were injected onto the LC-MS/MS. The same procedures were applied to AMP-containing samples except that reagent D2 was used instead of reagent C2. All experiments were performed in quadruplicate.

Series [1] in a line: Cytotoxicity (MTT, AST, LDH) in cryopreserved human hepatocytes. It counts as cell-based. The conditions noted are these: human, cryopreserved primary human hepatocytes; 96 h incubation. On the procedure: Cytotoxicity was determined with MTT assay in cryopreserved human hepatocytes. Thawing and plating of cryopreserved hepatocytes were carried out according to the manufacturer’s protocol. […] 11 μL of 5 mg/ml MTT was added to each well of the plate, and then the plate was incubated at 37°C for 3–4 h. After the medium was aspirated, 150 μL of DMSO was added to dissolve the formazan. The absorbance at 570 nm was measured and corrected for background absorption at 690 nm using a SpectraMax® i3 plate reader (Molecular Devices, Silicon Valley, CA, United States). AST and LDH levels in the medium of parallel processed plates were measured by commercially available assay kits. […] All experiments were performed in triplicate.

Another series concerns OATP1B1. Also on record: method as in Elsby et al., 2016. To be noted: ref Elsby et al., 2016; cited from earlier work.
A further series deals with OATP1B3. Also on record: method as in Elsby et al., 2016. To be noted: ref Elsby et al., 2016; cited from earlier work.

T2 sequence (Q92887 whole entry): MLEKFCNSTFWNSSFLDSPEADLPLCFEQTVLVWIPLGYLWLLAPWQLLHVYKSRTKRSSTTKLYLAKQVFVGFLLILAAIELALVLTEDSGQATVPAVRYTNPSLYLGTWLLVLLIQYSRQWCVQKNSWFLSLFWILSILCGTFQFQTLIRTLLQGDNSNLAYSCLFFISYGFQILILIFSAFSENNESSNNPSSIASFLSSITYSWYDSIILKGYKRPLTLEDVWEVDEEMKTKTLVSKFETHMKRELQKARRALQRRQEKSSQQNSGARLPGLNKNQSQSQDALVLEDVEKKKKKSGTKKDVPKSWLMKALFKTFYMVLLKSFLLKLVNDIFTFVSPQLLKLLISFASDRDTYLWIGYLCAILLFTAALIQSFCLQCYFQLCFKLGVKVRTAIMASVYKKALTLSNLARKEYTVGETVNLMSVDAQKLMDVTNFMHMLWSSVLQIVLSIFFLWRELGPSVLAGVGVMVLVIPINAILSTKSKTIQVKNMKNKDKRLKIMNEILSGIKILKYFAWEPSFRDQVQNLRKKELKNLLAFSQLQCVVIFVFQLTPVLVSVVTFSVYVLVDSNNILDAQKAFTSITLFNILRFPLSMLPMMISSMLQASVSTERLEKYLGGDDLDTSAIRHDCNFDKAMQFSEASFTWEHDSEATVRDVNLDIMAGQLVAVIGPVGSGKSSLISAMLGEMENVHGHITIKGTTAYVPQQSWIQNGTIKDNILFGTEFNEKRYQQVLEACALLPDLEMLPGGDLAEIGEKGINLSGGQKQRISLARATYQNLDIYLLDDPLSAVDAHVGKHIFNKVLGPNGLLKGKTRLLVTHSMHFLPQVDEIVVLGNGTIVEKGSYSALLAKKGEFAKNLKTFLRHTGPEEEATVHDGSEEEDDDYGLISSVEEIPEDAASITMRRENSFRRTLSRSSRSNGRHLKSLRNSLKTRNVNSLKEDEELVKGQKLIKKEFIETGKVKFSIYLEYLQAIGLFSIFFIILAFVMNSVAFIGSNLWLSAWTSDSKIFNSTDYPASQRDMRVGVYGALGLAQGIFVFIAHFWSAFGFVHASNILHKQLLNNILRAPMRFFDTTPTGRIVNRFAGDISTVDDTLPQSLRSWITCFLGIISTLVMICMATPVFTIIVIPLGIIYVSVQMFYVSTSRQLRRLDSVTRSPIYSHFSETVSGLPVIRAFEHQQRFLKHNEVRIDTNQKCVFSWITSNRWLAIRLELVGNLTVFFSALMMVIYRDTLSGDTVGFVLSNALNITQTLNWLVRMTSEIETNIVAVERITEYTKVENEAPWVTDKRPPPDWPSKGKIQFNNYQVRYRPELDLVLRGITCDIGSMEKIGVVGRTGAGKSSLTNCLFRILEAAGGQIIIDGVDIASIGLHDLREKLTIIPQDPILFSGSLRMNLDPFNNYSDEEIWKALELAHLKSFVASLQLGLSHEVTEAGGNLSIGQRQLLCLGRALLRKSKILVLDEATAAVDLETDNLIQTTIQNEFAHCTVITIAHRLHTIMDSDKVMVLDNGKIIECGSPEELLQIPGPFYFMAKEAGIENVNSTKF

As to `COC(=O)[C@H](c1ccccc1Cl)N1CCc2sccc2C1` [CP, clopidogrel], the “[I2]/IC50 BCRP ratio” value at BCRP is over 10.

As a reminder, the IC50 is the concentration that inhibits the measured activity by half. `CC(C)c1nc(N(C)S(C)(=O)=O)nc(-c2ccc(F)cc2)c1/C=C/[C@@H](O)C[C@@H](O)CC(=O)O` [RSV, rosuvastatin]: the “Uptake ratio into MRP2-expressing membrane vesicles” value on MRP2 is on record as “less than 2”. The same compound returned an IC50 at 96 h in series [1] of 14.8 µM. Further, the “Individual contribution of OATP1B1 to hepatic uptake” value with OATP1B1 was 0.38. Besides, in the series with OATP1B3, the “Individual contribution of OATP1B3 to hepatic uptake” value was 0.11.
